Measured values as given in patent US12679878B2, “CRF2 receptor agonists and their use in therapy” (SANOFI, priority 2020, dated 2026).
Read-outs that look alike come from different tables or passages of the source. Starred links: 1 amine or outer side, 2 acyl side, 3 side chain; linkers in the order of their positions; H or OH if unused. Non-standard residues stand in square brackets, D forms with d. Residues, ends and D or L forms follow the SMILES beside them. Groups on a side chain read outwards from the residue. *: point of attachment. C18 diacid = O=C(O)CCCCCCCCCCCCCCCCC(=O)*; γGlu = O=C(O)[C@H](CCC(=O)[*:2])N[*:1]; AEEA = NCCOCCOCC(=O)O; Aib = CC(C)(N)C(=O)O

Legend:
[1] = biological target: T1, human CRF2α receptor (Homo sapiens, UniProt Q13324); assay: cAMP agonism at human CRF2 α receptor in TeloHEAC cells (Example 7); format: cell-based; details: cAMP HTRF, TeloHEAC cells stably expressing human CRF2 α
T1 construct: expressed in transfected cells; host or cells: TeloHEAC
T1 sequence (Q13324 1-411): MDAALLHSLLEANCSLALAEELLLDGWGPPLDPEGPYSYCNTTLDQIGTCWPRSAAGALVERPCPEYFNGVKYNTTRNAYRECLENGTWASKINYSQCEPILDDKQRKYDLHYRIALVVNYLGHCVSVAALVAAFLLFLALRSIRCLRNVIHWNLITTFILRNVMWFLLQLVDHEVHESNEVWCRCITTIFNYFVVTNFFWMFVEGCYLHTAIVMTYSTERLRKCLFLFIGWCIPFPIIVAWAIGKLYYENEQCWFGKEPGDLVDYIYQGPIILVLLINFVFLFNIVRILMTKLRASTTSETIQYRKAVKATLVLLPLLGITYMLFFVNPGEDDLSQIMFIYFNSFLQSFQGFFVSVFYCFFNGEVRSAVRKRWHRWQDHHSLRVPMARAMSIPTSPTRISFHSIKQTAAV
How it was run: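 Thawed frozen stably transfected cells in HBSS/20 mM HEPES (0% or 0.1% HSA) plus 2 mM IBMX were exposed to compound at 2000 cells/well for 30 min at room temperature. Intracellular cAMP was read by HTRF (665/620 nm ratio) after 1 h lysis; EC50 was derived with 1000 nM urocortin 2 set as 100%.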

[2] = biological target: T2, CRF1R receptor (Homo sapiens, UniProt P34998); assay: cAMP activity at anti-target CRF1R, CHO-K1 cell line clone 2 (Example 19.10); format: cell-based; details: CRF1R CHO-K1 clone 2; for EC50: 0% HSA, read-out: EC50 [nM] 0% HSA; for Emax: 100% = Sauvagine at 100 nM
T2 construct: host or cells: CHO-K1 clone 2
T2 sequence (P34998 24-415): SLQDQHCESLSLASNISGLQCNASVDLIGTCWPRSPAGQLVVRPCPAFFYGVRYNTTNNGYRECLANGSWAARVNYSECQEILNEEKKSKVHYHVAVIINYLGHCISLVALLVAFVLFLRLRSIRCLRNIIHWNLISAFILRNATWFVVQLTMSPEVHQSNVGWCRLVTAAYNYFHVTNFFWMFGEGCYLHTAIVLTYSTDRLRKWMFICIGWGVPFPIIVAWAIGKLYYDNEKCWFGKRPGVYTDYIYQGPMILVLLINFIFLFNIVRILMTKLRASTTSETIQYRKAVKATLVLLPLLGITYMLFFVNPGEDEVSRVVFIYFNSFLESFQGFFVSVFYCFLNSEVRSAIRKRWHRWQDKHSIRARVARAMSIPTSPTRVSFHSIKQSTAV
How it was run: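 A CRF1R-overexpressing CHO-K1 line (clone 2) was grown in F12/10% FBS/G418 and frozen in aliquots before use. The cAMP assay followed the preceding procedure, with 100% activation defined by Sauvagine at 100 nM.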

[3] = 0% HSA, read-out: EC50 [nM], 0% HSA
[4] = 0.1% HSA, read-out: EC50 [nM], 0.1% HSA

EC50 [1, 3] [nM] | EC50 [1, 4] [nM] | EC50 [2] [nM] | Emax [2] [%] | SMILES
0.47 | 19.9 | > 100 | 17.7 | CC[C@H](C)[C@H](N)C(=O)N[C@H](C(=O)N[C@@H](CC(C)C)C(=O)N[C@@H](CO)C(=O)N[C@@H](CC(C)C)C(=O)N[C@@H](CC(=O)O)C(=O)N[C@H](C(=O)N1CCC[C@H]1C(=O)N[C@H](C(=O)N[C@@H](CCCCN)C(=O)N[C@@H](CC(C)C)C(=O)N[C@@H](CCCCNC(=O)COCCOCCNC(=O)COCCOCCNC(=O)CC[C@H](NC(=O)CCCCCCCCCCCCCCCCC(=O)O)C(=O)O)C(=O)N[C@@H](CCC(N)=O)C(=O)N[C@H](C(=O)N[C@@H](CC(C)C)C(=O)N[C@@H](CC(C)C)C(=O)N[C@@H](CCC(=O)O)C(=O)N[C@@H](CCC(N)=O)C(=O)N[C@@H](C)C(=O)N[C@@H](CCCNC(=N)N)C(=O)N[C@@H](CCC(N)=O)C(=O)N[C@@H](CCCCN)C(=O)NC(C)(C)C(=O)N[C@@H](CCC(N)=O)C(=O)N[C@@H](CCCNC(=N)N)C(=O)N[C@@H](CCC(=O)O)C(=O)N[C@@H](CCC(N)=O)C(=O)N[C@@H](C)C(=O)N[C@@H](CCC(=O)O)C(=O)N[C@@H](CCCCN)C(=O)N[C@@H](CC(N)=O)C(=O)N[C@@H](CCCCN)C(=O)N[C@@H](CCCNC(=N)N)C(=O)N[C@H](C(=O)N[C@@H](CC(C)C)C(=O)N[C@@H](CCC(=O)O)C(=O)N[C@@H](CCCNC(=N)N)C(=O)N[C@H](C(N)=O)C(C)C)[C@@H](C)CC)[C@@H](C)CC)[C@@H](C)CC)C(C)C)C(C)C [compound 125] (H-IVLSLDVPIKLK([AEEA-AEEA-γGlu-C18 diacid])QILLEQARQK[Aib]QREQAEKNKRILERV-NH2; N-terminus assumed)
0.22 | 5.59 | > 100 | 36.5 | CC[C@H](C)[C@H](N)C(=O)N[C@H](C(=O)N[C@@H](CC(C)C)C(=O)N[C@@H](CO)C(=O)N[C@@H](CC(C)C)C(=O)N[C@@H](CC(=O)O)C(=O)N[C@@H](C(=O)N1CCC[C@H]1C(=O)N[C@H](C(=O)N[C@@H](CCCCN)C(=O)N[C@@H](CC(C)C)C(=O)N[C@@H](CCCCNC(=O)COCCOCCNC(=O)COCCOCCNC(=O)CC[C@H](NC(=O)CCCCCCCCCCCCCCCCC(=O)O)C(=O)O)C(=O)N[C@@H](CCC(N)=O)C(=O)N[C@H](C(=O)N[C@@H](CC(C)C)C(=O)N[C@@H](CC(C)C)C(=O)N[C@@H](CCC(=O)O)C(=O)N[C@@H](CCC(N)=O)C(=O)N[C@@H](C)C(=O)N[C@@H](CCCCN)C(=O)N[C@@H](CCC(N)=O)C(=O)N[C@@H](CCCCN)C(=O)NC(C)(C)C(=O)N[C@@H](CCC(N)=O)C(=O)N[C@@H](CCCNC(=N)N)C(=O)N[C@@H](C)C(=O)N[C@@H](CCC(N)=O)C(=O)N[C@@H](C)C(=O)N[C@@H](CCC(=O)O)C(=O)N[C@@H](CCCCN)C(=O)N[C@@H](CC(N)=O)C(=O)N[C@@H](CCCCN)C(=O)N[C@@H](CCCNC(=N)N)C(=O)N[C@H](C(=O)N[C@@H](CC(C)C)C(=O)N[C@@H](CCC(=O)O)C(=O)N[C@@H](CCCNC(=N)N)C(=O)N[C@H](C(N)=O)C(C)C)[C@@H](C)CC)[C@@H](C)CC)[C@@H](C)CC)C(C)C)C(C)C [compound 126] (H-IVLSLD[dV]PIKLK([AEEA-AEEA-γGlu-C18 diacid])QILLEQAKQK[Aib]QRAQAEKNKRILERV-NH2; N-terminus assumed)
0.07 | 3.44 | > 100 | -8.6 | CC[C@H](C)[C@H](N)C(=O)N[C@H](C(=O)N[C@@H](CC(C)C)C(=O)N[C@@H](CO)C(=O)N[C@@H](CC(C)C)C(=O)N[C@@H](CC(=O)O)C(=O)N[C@@H](C(=O)N1CCC[C@H]1C(=O)N[C@H](C(=O)N[C@@H](CCCCN)C(=O)N[C@@H](CC(C)C)C(=O)N[C@@H](CCCCNC(=O)COCCOCCNC(=O)COCCOCCNC(=O)CC[C@H](NC(=O)CCCCCCCCCCCCCCCCC(=O)O)C(=O)O)C(=O)N[C@@H](CCC(N)=O)C(=O)N[C@H](C(=O)N[C@@H](CC(C)C)C(=O)N[C@@H](CC(C)C)C(=O)N[C@@H](CCCCN)C(=O)N[C@@H](CCC(N)=O)C(=O)N[C@@H](CCC(=O)O)C(=O)N[C@@H](CCCNC(=N)N)C(=O)N[C@@H](CCC(N)=O)C(=O)N[C@@H](CCCCN)C(=O)NC(C)(C)C(=O)N[C@@H](CCC(N)=O)C(=O)N[C@@H](CCCNC(=N)N)C(=O)N[C@@H](CCC(=O)O)C(=O)N[C@@H](CCCCN)C(=O)N[C@@H](C)C(=O)N[C@@H](CCC(=O)O)C(=O)N[C@@H](CCCCN)C(=O)N[C@@H](CC(N)=O)C(=O)N[C@@H](CCCCN)C(=O)N[C@@H](CCC(N)=O)C(=O)N[C@H](C(=O)N[C@@H](CC(C)C)C(=O)N[C@@H](C)C(=O)N[C@@H](CCC(N)=O)C(=O)N[C@H](C(N)=O)C(C)C)[C@@H](C)CC)[C@@H](C)CC)[C@@H](C)CC)C(C)C)C(C)C [compound 134] (H-IVLSLD[dV]PIKLK([AEEA-AEEA-γGlu-C18 diacid])QILLKQERQK[Aib]QREKAEKNKQILAQV-NH2; N-terminus assumed)
0.29 | 14.3 | > 100 | 2.6 | CC[C@H](C)[C@H](N)C(=O)N[C@H](C(=O)N[C@@H](CC(C)C)C(=O)N[C@@H](CO)C(=O)N[C@@H](CC(C)C)C(=O)N[C@@H](CC(=O)O)C(=O)N[C@H](C(=O)N1CCC[C@H]1C(=O)N[C@H](C(=O)NCC(=O)N[C@@H](CC(C)C)C(=O)N[C@@H](CCCCNC(=O)COCCOCCNC(=O)COCCOCCNC(=O)CC[C@H](NC(=O)CCCCCCCCCCCCCCCCC(=O)O)C(=O)O)C(=O)N[C@@H](CCC(N)=O)C(=O)N[C@H](C(=O)N[C@@H](CC(C)C)C(=O)N[C@@H](CC(C)C)C(=O)N[C@@H](CCCCN)C(=O)N[C@@H](CCC(N)=O)C(=O)N[C@@H](CCC(=O)O)C(=O)N[C@@H](CCCNC(=N)N)C(=O)N[C@@H](CCC(N)=O)C(=O)N[C@@H](CCCCN)C(=O)N[C@@H](CCCCN)C(=O)NC(C)(C)C(=O)N[C@@H](CCCNC(=N)N)C(=O)N[C@@H](CCC(=O)O)C(=O)N[C@@H](CCC(N)=O)C(=O)N[C@@H](C)C(=O)N[C@@H](CCC(=O)O)C(=O)N[C@H](C(=O)N[C@@H](CC(N)=O)C(=O)N[C@@H](CCCCN)C(=O)N[C@@H](CCCNC(=N)N)C(=O)N[C@H](C(=O)N[C@@H](CC(C)C)C(=O)N[C@@H](CCC(=O)O)C(=O)N[C@@H](CCCNC(=N)N)C(=O)N[C@H](C(N)=O)C(C)C)[C@@H](C)CC)[C@@H](C)O)[C@@H](C)CC)[C@@H](C)CC)C(C)C)C(C)C [compound 148] (H-IVLSLDVPIGLK([AEEA-AEEA-γGlu-C18 diacid])QILLKQERQKK[Aib]REQAETNKRILERV-NH2; N-terminus assumed)
0.06 | 2.54 | > 100 | 6.6 | CC[C@H](C)[C@H](N)C(=O)N[C@H](C(=O)N[C@@H](CC(C)C)C(=O)N[C@@H](CO)C(=O)N[C@@H](CC(C)C)C(=O)N[C@@H](CC(=O)O)C(=O)N[C@@H](C(=O)N1CCC[C@H]1C(=O)N[C@H](C(=O)N[C@@H](CCCCN)C(=O)N[C@@H](CC(C)C)C(=O)N[C@@H](CCCCNC(=O)COCCOCCNC(=O)COCCOCCNC(=O)CC[C@H](NC(=O)CCCCCCCCCCCCCCCCC(=O)O)C(=O)O)C(=O)N[C@@H](CCC(N)=O)C(=O)N[C@H](C(=O)N[C@@H](CC(C)C)C(=O)N[C@@H](CC(C)C)C(=O)N[C@@H](CCCCN)C(=O)N[C@@H](CCC(N)=O)C(=O)N[C@@H](CCC(=O)O)C(=O)N[C@@H](CCCNC(=N)N)C(=O)N[C@@H](CCC(N)=O)C(=O)N[C@@H](CCCCN)C(=O)N[C@@H](CCCCN)C(=O)NC(C)(C)C(=O)N[C@@H](CCCNC(=N)N)C(=O)N[C@@H](CCC(=O)O)C(=O)N[C@@H](CCC(N)=O)C(=O)N[C@@H](C)C(=O)N[C@@H](CCC(=O)O)C(=O)N[C@H](C(=O)N[C@@H](CC(N)=O)C(=O)N[C@@H](CCCCN)C(=O)N[C@@H](CCCNC(=N)N)C(=O)N[C@H](C(=O)N[C@@H](CC(C)C)C(=O)N[C@@H](CCC(=O)O)C(=O)N[C@@H](CCCNC(=N)N)C(=O)N[C@H](C(N)=O)C(C)C)[C@@H](C)CC)[C@@H](C)O)[C@@H](C)CC)[C@@H](C)CC)C(C)C)C(C)C [compound 149] (H-IVLSLD[dV]PIKLK([AEEA-AEEA-γGlu-C18 diacid])QILLKQERQKK[Aib]REQAETNKRILERV-NH2; N-terminus assumed)
